{"source": "BindingDB's records for doi:10.1016/s0960-894x(98)00542-3", "about": "(University of Tokyo, 1998)"}
{"target": "Chitinase (Trichoderma)", "assay": "Compound was evaluated for inhibitory activity against Trichoderma Chitinase", "units": {"IC50": "nM"}}
{"smiles": "CC(=O)NC(CO)C(OC(CO)CO)OC1C(CO)OC(OC2C(O)C3N=C(N(C)C)OC3C2CO)C(NC(C)=O)C1O", "note": "(centres undefined)", "IC50": 80}
{"smiles": "CC(=O)NC(/C=N/NC(=O)CCCCCNC(=O)CCCCC1SC[C@H]2NC(=O)N[C@@H]12)C(OC(CO)CO)OC1C(CO)OC(OC2C(O)C3N=C(N(C)C)OC3C2CO)C(NC(C)=O)C1O", "note": "(some centres undefined)", "IC50": 41}
{"smiles": "CC(=O)NC(/C=N/NC(=O)CCCCCNC(=O)CCCCC1SC[C@@H]2NC(=O)N[C@H]12)C(OC(/C=N/NC(=O)CCCCCNC(=O)CCCCC1SC[C@@H]2NC(=O)N[C@H]12)CO)OC1C(CO)OC(OC2C(O)C3N=C(N(C)C)OC3C2CO)C(NC(C)=O)C1O", "note": "(some centres undefined)", "IC50": 7.53}
{"smiles": "CC(=O)NC(/C=N/NC(=O)CCCCCNC(=O)CCCCC1SC[C@H]2NC(=O)N[C@@H]12)C(OC(C=O)CO)OC1C(CO)OC(OC2C(O)C3N=C(N(C)C)OC3C2CO)C(NC(C)=O)C1O", "note": "(some centres undefined)", "IC50": 41.1}
